Measurements reported in patent publication US20200345728A1, “COMPOSITIONS AND METHODS FOR TREATMENT OF ATHEROSCLEROSIS” (NovMetaPharma Co., Ltd., priority 2019, published 2020).

Experiments:
VSMCs = assay: Cell viability in VSMCs analyzed by FACS (viability stain); type: cell-based; settings: 45 minutes
Procedure: (§1) VSMC were seeded (1.25×10^5 cells/well in 12-well plates) and incubated at 37° C. for 24 hr. Cultures were then subjected to various treatments (as shown in Table 1) to induce ROS for 45 minutes (at 37° C.) along with 10 μM CM-H2CFDA (Molecular Probes, Inc., Eugene, Oreg.). CM-H2DCFDA is a chloromethyl derivative of H2DCFDA, useful as an indicator for ROS in cells. Subsequent oxidation of CM-H2CFDA yields a fluorescent adduct that is trapped inside the cell. At the end of treatment period cells were trypsinized, washed, and analyzed by FACS for ROS (CM-H2CFDA fluorescence) and viability using a viability stain (BD Horizon Fixable Viability Stain 660; BD Biosciences, San Jose, Calif.).

ROS in VSMCs = assay: ROS generation in VSMCs analyzed by FACS (CM-H2CFDA fluorescence); type: cell-based; settings: 45 minutes
Procedure: as §1

[1] = test system: RAW264.7 macrophage cells; assay: FACS analysis of cell viability in M2 activated RAW264.7 cultures; type: cell-based
Procedure: RAW264.7 macrophage cells, untreated and treated with IL-4 (20 ng/ml), were stained with 1:1000 diluted viability stain (BD Horizon Fixable Viability Stain 660). Cells were analyzed by FACS and gated for unstained (viable) and stained (non-viable) populations.

[2] = DPPH colorimetric anti-oxidant assay; type: biochemical; settings: incubation with DPPH, various concentrations
From the text: In this colorimetric assay, DPPH functions as a free radical that can be inactivated by anti-oxidant compounds resulting in loss of color. […] Zinc was not tested alone since it was not completely soluble in the organic solvents needed for the assay. Ascorbic Acid functions as an antioxidant positive control.

[3] = test system: RAW264.7 macrophage cells; assay: Charcoal phagocytosis assay in activated RAW264.7 macrophage cells; type: cell-based; settings: during M1 activation (1 μg/ml LPS/20 ng/ml IFN); 50 μM CHP, 10 μM Zn
Procedure: RAW264.7 macrophage cells (ATCC® TIB-71) were activated to either inflammatory M1 macrophage phenotype (with 1 μg/ml LPS/20 ng/ml IFN) or to the anti-inflammatory M2 phenotype (with 20 ng/ml IL-4) in the presence or absence of Cyclo-Z (50 μM CHP/10 μM Zn) treatment. Charcoal dust was added to the culture as a marker of M1 phagocytosis activity.
To compare between CHP and Zinc effects in Cyclo-Z on charcoal binding activities, we determined the phagocytosis activity of CHP (50 μM CHP) or Zinc (10 μM Zn) alone or Cyclo-Z during activation of M1 macrophages (with 1 μg/ml LPS/20 ng/ml IFN).

[4] = test system: mouse spleen cells (B-cell activation); assay: B-cell activation in mouse spleen cells; type: cell-based; settings: alone, 4 days; LPS 1 μg/ml; Cyclo-Z 50 μM CHP/10 μM Zn
Procedure: Mouse spleen cells were isolated from wild type C57BL/6J mice (The Jackson Laboratory; strain 000632) and plated under standard cell culture conditions in the presence or absence of Cyclo-Z (50 μM CHP/10 μM zinc) and/or LPS for 4 days. Nodules indicating increased B-cell activation and proliferation were visualized by microscopy.

[5] = added with IL-4 (20 ng/ml), M2 activated

With `OC[C@H]1OC(O)[C@H](O)[C@@H](O)[C@@H]1O` (stereo partly shown) [HG] the “Viability Population” value (VSMCs; HG (50 mM) alone) was 61.63, the “Viability Population” value (VSMCs; HG (100 mM) alone) was 63.9 and the “ROS Population” value (ROS in VSMCs; HG (50 mM) alone) was 0.04. The “ROS Population” value (ROS in VSMCs; HG (100 mM) alone) was 0.04.
For “IL-4: Interleukin-4, cytokine used to activate macrophages to M2 phenotype”, the “Percent Non-Viability” value ([1]; IL-4 (20 ng/ml) alone) was 17.63%.
With `O=C1N[C@@H](Cc2cnc[nH]2)C(=O)N2CCC[C@@H]12` [CHP, cyclo-Hispro] the “Percent Non-Viability” value [1, 5] was 14.13%, the “Percent Viability (Stained)” value [1, 5] was 73.63% and the “anti-oxidant activity (DPPH)” value [2] was “concentration dependent anti-oxidant activity”. The “charcoal uptake (phagocytosis activity)” value [3] was “did not show any effects”.
With lipopolysaccharide [LPS] the “Viability Population” value (VSMCs; LPS alone) was 75.81, the “B-cell activation/proliferation (nodules)” value [4] was “induced some B-cell activation/proliferation” and the “ROS Population” value (ROS in VSMCs; LPS alone) was 0.09.
For `OO` [H2O2, hydrogen peroxide], the “Viability Population” value (VSMCs; H2O2 (5 μL) alone) was 22.31, the “Viability Population” value (VSMCs; H2O2 (10 μL) alone) was 7.33 and the “ROS Population” value (ROS in VSMCs; H2O2 (5 μL) alone) was 81.33. The “ROS Population” value (ROS in VSMCs; H2O2 (10 μL) alone) was 50.63.
For `[Cl-].[Cl-].[Zn+2]` [Zinc, ZnCl2], the “Percent Non-Viability” value [1, 5] was 33.49%, the “Percent Viability (Stained)” value [1, 5] was 58.47% and the “charcoal uptake (phagocytosis activity)” value [3] was “somewhat effective”.
